# Laboratory results: patent US20060122232A1, “4-Hydroxyfuroic acid derivatives” (DEVELOPMENT CENTER FOR BIOTECHNOLOGY, priority 2004, published 2006)
# Molecular target: T1, human insulin receptor (CHO.IR cells) (Homo sapiens, UniProt P06213)
# T1 construct: host or cells: CHO.IR cells (CHO)
# Assay: Cell-based assay for insulin receptor tyrosine kinase activity
# Settings: 20 min; CHO.IR cells treated with 100 μM of compound; read-out: reduction in tyrosine kinase activity
# Protocol: CHO.IR cells overexpressing human insulin receptor were obtained from Stanford University. Approximately 1.5×10^5 cells were seeded in each well of a 96-well plate containing Hams F12 medium plus 10% fetal calf serum, fungizone, penicillin, and streptomycin. The cells were incubated at 37° C. for approximately 24 hours, allowing cells to reach confluency. The cells were then washed with phosphate buffered saline (PBS) three times and then incubated in serum-free medium at 37° C. for 2 hours. Insulin or test compounds were added to the wells and the cells were incubated for an additional 20 minutes at 37° C. The cells were washed with PBS three times and then lysed in 60 μL/well of a lysis buffer containing 50 mM HEPES, pH 7.4, 1% Triton X-100, 5 mM EDTA, 5 mM EGTA, 20 mM sodium pyrophosphate, 1 mM sodium vanadate, 20 mM sodium fluoride, 1 mg/mL Bacitracin, 150 mM sodium chloride, 2 μg/mL Aprotonin, and 1 mM PMSF. Lysates were transferred to a second 96-well plate pre-coated with monoclonal anti-insulin receptor antibody (0.2 μg/50 μL/well, in 20 mM NaHCO3, pH 9.6). The second plate was incubated at 4° C. for 16 hours to immunoabsorb insulin receptors.
# CHO.IR cells were cultured at approximately 1.5×10^5 cells/well (in a 96-well plate) in a Hams F12 medium supplemented with 10% fetal calf serum, fungizone, penicillin, and streptomycin. The cells were incubated at 37° C. for 24 hours, allowing cells to reach confluency. The cells were then washed with PBS three times and then incubated in serum-free medium at 37° C. for 2 hours. Insulin or test compounds were added to the cells and incubated for an additional 20 minutes at 37° C. The cells were washed three times with PBS and lysed in the same 60 μL lysis buffer as mentioned in Example 174. Lysates were transferred to a second 96-well plate pre-coated with monoclonal anti-insulin receptor antibody (under the same conditions as those mentioned in Example 174). Lysates were incubated at 4° C. for 16 hours to immunoabsorb insulin receptors.
# 20 μL of a kinase reaction mixture (50 mM Hepes, pH 7.6, 150 mM NaCl, 5 mM MgCl2, 5 mM MnCl2, 0.1% Triton x-100, 1 mg/mL poly(Glu:Tyr)(4:1), 2 μCi of carrier-free [γ-^32P]ATP) was added to each well. After reacting at 25° C. for 40 minutes, the reaction mixture was transferred to a Multiscreen pH plate (Millipore, Billerica, Mass.) and unbound ATP was washed away. The insulin receptor tyrosine kinase activity was determined by detecting the radioactivities associated with the wells using a Topcount scintillation counter (Perkin-Elmer, Wellesley, Mass.).
# T1 sequence (P06213 28-758 limits assumed): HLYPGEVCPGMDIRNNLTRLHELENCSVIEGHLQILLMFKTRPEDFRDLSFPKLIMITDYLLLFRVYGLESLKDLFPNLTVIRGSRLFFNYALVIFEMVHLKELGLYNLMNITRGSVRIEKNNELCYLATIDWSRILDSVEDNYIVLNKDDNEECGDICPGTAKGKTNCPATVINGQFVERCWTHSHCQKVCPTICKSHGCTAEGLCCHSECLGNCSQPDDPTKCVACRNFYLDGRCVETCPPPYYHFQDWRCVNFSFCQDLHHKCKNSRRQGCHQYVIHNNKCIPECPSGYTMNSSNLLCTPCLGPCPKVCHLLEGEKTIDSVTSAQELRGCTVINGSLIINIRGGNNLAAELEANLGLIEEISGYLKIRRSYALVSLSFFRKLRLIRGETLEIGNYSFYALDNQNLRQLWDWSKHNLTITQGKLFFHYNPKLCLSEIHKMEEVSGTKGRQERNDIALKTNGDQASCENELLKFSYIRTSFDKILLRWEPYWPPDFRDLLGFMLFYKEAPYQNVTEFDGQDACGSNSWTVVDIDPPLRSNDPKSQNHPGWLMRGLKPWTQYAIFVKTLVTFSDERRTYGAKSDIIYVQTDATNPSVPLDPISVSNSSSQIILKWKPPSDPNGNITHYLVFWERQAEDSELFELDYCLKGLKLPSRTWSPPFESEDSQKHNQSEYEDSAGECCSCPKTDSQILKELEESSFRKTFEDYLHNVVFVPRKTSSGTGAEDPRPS
# T1 sequence (P06213 763-1382 limits assumed): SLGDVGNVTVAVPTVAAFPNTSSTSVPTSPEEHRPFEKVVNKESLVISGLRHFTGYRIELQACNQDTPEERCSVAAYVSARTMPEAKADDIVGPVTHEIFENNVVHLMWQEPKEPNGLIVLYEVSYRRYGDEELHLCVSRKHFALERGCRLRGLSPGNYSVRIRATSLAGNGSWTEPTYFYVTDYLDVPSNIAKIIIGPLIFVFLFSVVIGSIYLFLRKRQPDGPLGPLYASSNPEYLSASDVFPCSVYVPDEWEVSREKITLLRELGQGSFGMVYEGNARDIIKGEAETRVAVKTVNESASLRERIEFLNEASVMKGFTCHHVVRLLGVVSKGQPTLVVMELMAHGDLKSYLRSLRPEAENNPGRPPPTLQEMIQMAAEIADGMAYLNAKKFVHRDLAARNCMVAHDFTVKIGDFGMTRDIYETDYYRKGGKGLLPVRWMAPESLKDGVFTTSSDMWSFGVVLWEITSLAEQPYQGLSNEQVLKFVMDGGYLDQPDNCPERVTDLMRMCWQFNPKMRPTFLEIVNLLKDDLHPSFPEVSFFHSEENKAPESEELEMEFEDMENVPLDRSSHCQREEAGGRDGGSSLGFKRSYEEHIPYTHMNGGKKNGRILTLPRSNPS
row,Compound,inhibition at 100 µM
1,O=C(O)c1oc(C(=O)c2c[nH]c3c(CCCO)cccc23)c(O)c1-c1c[nH]c2ccccc12 [Compound 9],12 to 53%
2,O=C(O)c1oc(C(=O)c2c[nH]c3c(CCCCO)cccc23)c(O)c1-c1c[nH]c2ccccc12 [Compound 21],12 to 53%
3,O=C(O)c1oc(C(=O)c2c[nH]c3c(CCCCCO)cccc23)c(O)c1-c1c[nH]c2ccccc12 [Compound 30],12 to 53%
4,O=C(O)c1sc(C(=O)c2c[nH]c3c(CCCCCO)cccc23)c(O)c1-c1c[nH]c2ccccc12 [Compound 114],12 to 53%
5,O=C(O)CCc1cccc2c(C(=O)c3oc(C(=O)O)c(-c4c[nH]c5ccccc45)c3O)c[nH]c12 [Compound 170],12 to 53%
6,CCCCCc1cccc2c(C(=O)c3oc(C(=O)O)c(-c4c[nH]c5ccccc45)c3O)c[nH]c12 [Compound 171],12 to 53%
7,O=C(O)CCCCc1cccc2c(C(=O)c3oc(C(=O)O)c(-c4c[nH]c5ccccc45)c3O)c[nH]c12 [Compound 172],12 to 53%
8,O=C(O)c1oc(C(=O)c2c[nH]c3c(CCCC(CO)CO)cccc23)c(O)c1-c1c[nH]c2ccccc12 [Compound 173],12 to 53%
